Measured values from patent US8507411B2, “Neoglycorandomization and digitoxin analogs” (priority 2004, dated 2013).
Like-named read-outs stand apart in the source and are kept apart here.

Experiments:
[1] = system: Du145; experiment: High-throughput calcein AM cytotoxicity assay, Du145; format: cell-based, human; details: Du145 cells
From the text: (§1) Standard errors are depicted with error bars.

[2] = system: A549; experiment: High-throughput calcein AM cytotoxicity assay, A549; format: cell-based, human; details: A549 cells
From the text: as §1

[3] = system: NmuMG; experiment: cells; format: cell-based, mouse
From the text: (§2) In the assay, live cells were distinguished by the presence of a ubiquitous intracellular enzymatic activity which converts the non-fluorescent cell-permeable molecule calcein AM to the intensely fluorescent molecule calcein, which is retained within live cells. The IC50 value for each library member represents at least six replicates of dose-response experiments conducted over five concentrations using two-fold dilutions. […] Standard errors are depicted with error bars. Numerical values and corresponding error values can be found in Table 4. Du145: […]; MCF7: human breast carcinoma; HCT-116: human colon carcinoma, Hep3B: human liver carcinoma; SF-268: human CNS glioblastoma; SK-OV-3: human ovary adenocarcinoma; NCI-H460: human lung carcinoma; A549: human lung adenocarcinoma; NCI/ADR-RES: human breast carcinoma; NmuMG: mouse mammary normal epithelial.
(§3) Cell Culture: All cell lines except NmuMG were maintained in RPMI 1640 medium from InVitrogen (Cat No. 11875-085) supplemented with 10% w/v fetal bovine serum (FBS) from ICN (Cat No. 2916154) and penicillin-streptomycin (PS) (100 U/mL and 100 μg/mL) from InVitrogen (Cat No. 15140-122). NmuMG cells were maintained in DMEM medium from InVitrogen (Cat No. 11965-084) supplemented with 10% w/v fetal bovine serum (FBS) from ICN (Cat No. 2916154), 10 μg/ml insulin (InVitrogen Cat No 12585-014), and penicillin-streptomycin (PS) (100 U/mL and 100 μg/mL) from InVitrogen (Cat No. 15140-122). Cells were harvested by trypsinization using 0.25% w/v trypsin and 0.1% w/v EDTA from InVitrogen (Cat No. 15-050-057) and then counted in a hemocytometer in duplicate with better than 10% agreement in field counts. Cells were plated at a cell density of 10,000-15,000 cells/well of each Corning Costar 96-well black tissue culture treated microtiter plate (Fisher Cat No. 07-200-627). Cells were grown for 1 h at 37° C., with 5% CO2 in a humidified incubator to allow cell attachment to occur before compound addition.
(§4) Library Member Handling and Preparation for Cytotoxicity Assays: Library members were stored at −20° C. under dessicating conditions before the assay. Library member stocks (100×) were prepared in Corning Costar polypropylene 96-well V-bottom polypropylene microtiter plates (Fisher Cat No. 07-200-695). Five serial 1:2 dilutions were made with anhydrous DMSO at 100× the final concentration used in the assay.
(§5) Library Member Addition: The library member-containing plates were diluted 1:10 with complete cell culture media. The 10× stocks (10 μL) were added to the attached cells using a Biomek FX liquid handler (Beckman-Coulter). Library member stocks (10 μL) were added to 90 μL of cells in each plate to insure full mixing of stocks with culture media using a Beckman FX liquid handler with 96-well head.
(§6) Determination of Cytotoxicity: Cells were incubated with the library members for 72 h before fluorescence reading. Test plates were removed from the incubator and washed 1× in sterile PBS to remove serum containing calcium esterases. Calcein AM reagent (30 μL, […]) was added and the cells were incubated for 30 min at 37° C. Plates were read for emission using a fluorescein filter (excitation 485 nm, emission 535 nm).
(§7) IC50 Calculation: For each library member, at least six dose response experiments were conducted. […] To calculate IC50, percent inhibitions were plotted as a function of log [concentration] and then fit to a four-parameter logistic model that allowed for a variable Hill slope using XLfit 4.1.
(§8) Cytotoxicity Assays. All cell lines except NmuMG were maintained in RPMI 1640 medium supplemented with 10% w/v fetal bovine serum (FBS) and penicillin-streptomycin (PS) (100 U/mL and 100 μg/mL).

[4] = system: Hep3B; experiment: High-throughput calcein AM cytotoxicity assay, Hep3B; format: cell-based, human; details: Hep 3B cells
From the text: as §1

[5] = system: HCT-116; experiment: High-throughput calcein AM cytotoxicity assay, HCT-116; format: cell-based, human; details: HCT-116 cells
From the text: as §1

[6] = system: MCF7; experiment: High-throughput calcein AM cytotoxicity assay, MCF7; format: cell-based, human; details: MCF7 cells
From the text: as §1

[7] = system: SF-268; experiment: cells; format: cell-based, human; details: SF-268 cells
From the text: as §2, §3, §4, §5, §6, §7, §8

[8] = system: NCI/ADR-RES; experiment: cells; format: cell-based, human; details: NCI/ADR-RES cells
From the text: as §2, §3, §4, §5, §6, §7, §8

[9] = system: SK-OV-3; experiment: cells; format: cell-based, human; details: SK-OV-3 cells
From the text: as §2, §3, §4, §5, §6, §7, §8

[10] = system: NCI-H460; experiment: High-throughput calcein AM cytotoxicity assay, NCI-H460; format: cell-based, human; details: NCI-H460 cells
From the text: as §1

[11] = NmuMG mouse mammary normal epithelial control line, read-out: IC50, NmuMG
[12] = NmuMG cells (mouse mammary normal epithelial control line), read-out: IC50

Molecule	IC50 ([1]; read-out: IC50, Du145)	IC50 ([2]; read-out: IC50, A549)	IC50 [3, 11]	IC50 ([4]; read-out: IC50, Hep 3B)	IC50 ([5]; read-out: IC50, HCT-116)	IC50 ([6]; read-out: IC50, MCF7)	IC50 ([7]; read-out: IC50, SF-268)	IC50 ([8]; read-out: IC50, NCI/ADR-RES)	IC50 ([9]; read-out: IC50, SK-OV-3)	IC50 ([10]; read-out: IC50, NCI-H460)	IC50 ([1]; read-out: IC50)	IC50 ([2]; read-out: IC50)	IC50 [3, 12]	IC50 ([4]; read-out: IC50)	IC50 ([5]; read-out: IC50)	IC50 ([6]; read-out: IC50)	IC50 ([7]; read-out: IC50)	IC50 ([8]; read-out: IC50)	IC50 ([9]; read-out: IC50)	IC50 ([10]; read-out: IC50)
CON(C1CCC2(C)C(CCC3C2CCC2(C)C(C4=CC(=O)OC4)CCC32O)C1)C1OC(CO)C(O)C(O)C1O [20α, D-altroside]	> 25 µM	> 25 µM	> 25 µM	> 25 µM	> 25 µM	> 25 µM	> 25 µM	> 25 µM	> 25 µM	> 25 µM										
CON(C1CCC2(C)C(CCC3C2CCC2(C)C(C4=CC(=O)OC4)CCC32O)C1)C1OC(CO)C(O)C(O)C1F [12α, 2-deoxy-2-fluoro-D-glucoside]	> 25 µM	> 25 µM	> 25 µM	> 25 µM	> 25 µM	> 25 µM	> 25 µM	> 25 µM	> 25 µM	> 25 µM										
CON(C1CCC2(C)C(CCC3C2CCC2(C)C(C4=CC(=O)OC4)CCC32O)C1)C1OC(C)C(O)C(O)C1O [8α, D-fucoside]	> 25 µM	> 25 µM	> 25 µM	> 25 µM	> 25 µM	> 25 µM	> 25 µM	> 25 µM	> 25 µM	> 25 µM										
6-deoxy-6-azido-D-mannoside [41α]											> 25 µM	> 25 µM	> 25 µM	> 25 µM	> 25 µM	> 25 µM	> 25 µM	> 25 µM	> 25 µM	> 25 µM
CON(C1CCC2(C)C(CCC3C2CCC2(C)C(C4=CC(=O)OC4)CCC32O)C1)C1OC(CO)C(O)C(O)C1O [29α, D-idoside]	> 25 µM	> 25 µM		> 25 µM	> 25 µM	> 25 µM	> 25 µM	> 25 µM	> 25 µM	> 25 µM			> 25 µM							
CON([C@H]1CC[C@@]2(C)[C@H](CC[C@@H]3[C@@H]2CC[C@]2(C)[C@@H](C4=CC(=O)OC4)CC[C@]32O)C1)[C@H]1OC[C@H](O)[C@@H](O)[C@H]1O [14β, L-lyxoside]	2.4 µM	0.7 µM	0.9 µM	0.6 µM	8 µM	4.5 µM	1.1 µM	0.73 µM	4.2 µM	5 µM										
L-rhamnoside [16α]	> 25 µM	> 25 µM	> 25 µM	> 25 µM	> 25 µM	> 25 µM	> 25 µM	> 25 µM	> 25 µM	> 25 µM										
CON(C1CCC2(C)C(CCC3C2CCC2(C)C(C4=CC(=O)OC4)CCC32O)C1)C1CC(C)(O)C(O)C(C)O1 [30α, L-mycaroside]	> 25 µM	> 25 µM		> 25 µM	> 25 µM	> 25 µM	> 25 µM	> 25 µM	> 25 µM	> 25 µM			> 25 µM							
CON(C1CCC2(C)C(CCC3C2CCC2(C)C(C4=CC(=O)OC4)CCC32O)C1)C1OC(CO)C(O)C(O)C1O [27α, D-mannoside]	> 25 µM	> 25 µM		> 25 µM	> 25 µM	> 25 µM	> 25 µM	> 25 µM	> 25 µM	> 25 µM			> 25 µM							
CON(C1CCC2(C)C(CCC3C2CCC2(C)C(C4=CC(=O)OC4)CCC32O)C1)C1OCC(O)C(O)C1O [6α, D-riboside]	> 25 µM	> 25 µM	> 25 µM	> 25 µM	> 25 µM	> 25 µM	> 25 µM	> 25 µM	> 25 µM	> 25 µM										
CON([C@H]1CC[C@@]2(C)[C@H](CC[C@@H]3[C@@H]2CC[C@]2(C)[C@@H](C4=CC(=O)OC4)CC[C@]32O)C1)[C@@H]1O[C@H](CO)[C@H](O)[C@@H](O)[C@H]1O [25β, D-guloside]	5.7 µM	2 µM	1.8 µM	1.9 µM	2.1 µM	0.9 µM	2 µM	1.1 µM	2.2 µM	2.6 µM										
CON([C@H]1CC[C@@]2(C)[C@H](CC[C@@H]3[C@@H]2CC[C@]2(C)[C@@H](C4=CC(=O)OC4)CC[C@]32O)C1)[C@H]1O[C@@H](C)[C@@H](O)[C@@H](O)[C@@H]1O [7β, L-fucoside]	0.7 µM	0.3 µM	> 25 µM	0.35 µM	1.2 µM	1.3 µM	0.9 µM	0.25 µM	0.5 µM	0.6 µM										
CON(C1CCC2(C)C(CCC3C2CCC2(C)C(C4=CC(=O)OC4)CCC32O)C1)C1OC(CO)C(O)C(O)C1O [42α, L-glucoside]											> 25 µM	> 25 µM	> 25 µM	> 25 µM	> 25 µM	> 25 µM	> 25 µM	> 25 µM	> 25 µM	> 25 µM
CON(C1CCC2(C)C(CCC3C2CCC2(C)C(C4=CC(=O)OC4)CCC32O)C1)C1OC(CO)C(O)C(O)C1O [17α, L-alloside]	> 25 µM	> 25 µM	> 25 µM	> 25 µM	> 25 µM	> 25 µM	> 25 µM	> 25 µM	> 25 µM	> 25 µM										
CON([C@H]1CC[C@@]2(C)[C@H](CC[C@@H]3[C@@H]2CC[C@]2(C)[C@@H](C4=CC(=O)OC4)CC[C@]32O)C1)[C@@H]1C[C@@](C)(O)[C@@H](O)[C@H](C)O1 [30β, L-mycaroside]	1.1 µM	0.6 µM	> 25 µM	0.6 µM	0.6 µM	1.8 µM	1.1 µM	0.35 µM	1.1 µM	0.19 µM										
CON([C@H]1CC[C@@]2(C)[C@H](CC[C@@H]3[C@@H]2CC[C@]2(C)[C@@H](C4=CC(=O)OC4)CC[C@]32O)C1)[C@H]1O[C@@H](CO)[C@@H](O)[C@H](O)[C@H]1O [28β, L-idoside]	1.9 µM	1.14 µM	1.8 µM	1 µM	3.2 µM	2.6 µM	2.1 µM	0.61 µM	2.4 µM	1.3 µM										
